Like-named read-outs stand apart in the source and are kept apart here.

By IC50 is commonly meant the midpoint of a concentration-inhibition curve.

Experiment [1] has as its system U251 malignant glioblastoma human cell line. The experiment is described as follows: U251 cell growth in zymosan-activated human serum (MTT cell viability). The class given is cell-based. As to conditions: 15% human serum, 1 μg/mL zymosan, 72 h, n=4, read-out: IC50, inhibition of U251 cell growth induced by zymosan-activated human serum complement. Here is the method:
To obtain normal serum, blood samples from healthy individuals were treated at 37° C. for 3 h to promote clotting. Samples were then centrifuged at 3,000 g for 10 min and the clear serum was harvested.
The ATAC used comprised approximately 78% ATA, 15% AQA, and 7% AHA. In addition, ATA, AQA and AHA that had been separated by size exclusion chromatography were also tested individually, their purity having been verified by mass spectrometry.
U251 cells were grown in DMEM medium containing 10% fetal bovine serum (FBS), 100 IU/mL penicillin, and 100 μg/mL streptomycin (Invitrogen™, Carlsbad, Ca.) under humidified 5% CO2 and 95% air until confluence was reached. This usually required 3 days of incubation. Aliquots of these cells (˜2×10^5 cells) were added to 24-well plates.
Experiment 1 was designed to determine the effect of ATA, AHA, AQA and ATAC on U251 cell growth in the presence of complement activated human serum. In Experiment 1(a), U251 cells were treated with various concentrations of human serum (1, 5, 7.5, 10, 12.5, 15%) in DMEM and incubated with 1 μg/mL zymosan at 37° C. for 72 h. Control U251 cells (CON) were incubated in fresh DMEM only. As a further control U251 cells were treated with 10% human serum heated at 56° C. for 30 min to heat inactivate complement (HIS) before incubation with 1 μg/ml zymosan. In Experiment 1(b), U251 cells were treated with various concentrations of ATAC, ATA, AQA and AHA (0.1, 1, 5, 10, 30, 50 μM) in DMEM with 15% human serum and incubated with 1 μg/mL zymosan at 37 ° C. for 72 h. In both Experiments 1(a) and 1(b), following incubation, cell viability was evaluated by MTT (3-[4,5-dimethylthiazol-2-yl]-2,5 diphenyl tetrazolium bromide) assays by adding MTT to the cell cultures to reach a final concentration of 1 mg/mL. […] Plates were subsequently incubated overnight at 37° C. and optical densities at 570 nm were measured by transferring 100 μL aliquots to 96-well plates and using a plate reader with a corresponding filter.

The test system of experiment [2] is BxPC-3 human pancreatic adenocarcinoma cell line. The experiment is described as follows: BxPC-3 cell growth in zymosan-activated human serum (MTT cell viability). The class given is cell-based. As to conditions: BxPC-3 cells, RPMI 1640, 15% human serum, 1 μg/mL zymosan, 72 h, n=4, read-out: IC50, inhibition of BxPC-3 cell growth induced by zymosan-activated human serum complement. As to the method: (§1) Experiment 1 was designed to determine the effect of ATA, AHA, AQA and ATAC on U251 cell growth in the presence of complement activated human serum. In Experiment 1(a), U251 cells were treated with various concentrations of human serum (1, 5, 7.5, 10, 12.5, 15%) in DMEM and incubated with 1 μg/mL zymosan at 37° C. for 72 h. Control U251 cells (CON) were incubated in fresh DMEM only. As a further control U251 cells were treated with 10% human serum heated at 56° C. for 30 min to heat inactivate complement (HIS) before incubation with 1 μg/ml zymosan. In Experiment 1(b), U251 cells were treated with various concentrations of ATAC, ATA, AQA and AHA (0.1, 1, 5, 10, 30, 50 μM) in DMEM with 15% human serum and incubated with 1 μg/mL zymosan at 37 ° C. for 72 h. In both Experiments 1(a) and 1(b), following incubation, cell viability was evaluated by MTT (3-[4,5-dimethylthiazol-2-yl]-2,5 diphenyl tetrazolium bromide) assays by adding MTT to the cell cultures to reach a final concentration of 1 mg/mL. Following a 1 h incubation at 37° C., the dark crystals formed were dissolved by adding a SDS/DMF extraction buffer (300 μL, 20% sodium dodecyl sulfate, 50% N,N-dimethylformamide, pH 4.7). Plates were subsequently incubated overnight at 37° C. and optical densities at 570 nm were measured by transferring 100 μL aliquots to 96-well plates and using a plate reader with a corresponding filter.
(§2) Experiment 5 was designed to determine the effect of ATA, AHA, AQA and ATAC on BxPC-3 cell growth in the presence of complement activated human serum.

For the next experiment, the system named is BxPC-3 cells. Briefly: Lactic dehydrogenase release from BxPC-3 cells. The class given is cell-based, human. As to conditions: n=4, read-out: IC50, lactate dehydrogenase release from BxPC-3 cells. As to the method: (§3) Experiment 4 was designed to confirm apoptotic cell death of U251 cells induced by ATA, AQA, AHA, and ATAC by measuring release of lactic dehydrogenase into the cell medium. For serum lactate dehydrogenase determination, reaction supernatants ([…]) were pipetted into the wells of 96-well plates, followed by the addition of […] lactate solution (36 mg/mL in PBS) and […] INT (iodonitrotetrazolium chloride, 2-(4-iodophenyl)-3-(4-nitrophenyl)-5-phenyl-2H-tetrazolium chloride) solution (2 mg/mL in PBS). The enzymatic reaction was started by addition of […] of NAD^+/diaphorase solution (3 mg/mL NAD^+; 2.3 mg solid/mL diaphorase). After 1 h, optical densities were measured with a microplate reader using a 490 nm filter. The amount of LDH released was expressed as a percentage of the value obtained in comparative cells where cells were 100% lysed by 1% Triton X-100.
Experiment 8 was designed to confirm apoptotic cell death of BxPC-3 cells induced by ATA, AQA, AHA, and ATAC by the release of lactic dehydrogenase into the cell medium.

In experiment [3] the test system is A549 human lung cancer cell line. Briefly: A549 cell growth in zymosan-activated human serum (MTT cell viability). The class given is cell-based. Particulars: A549 cells, 15% human serum, n=4, read-out: IC50, inhibition of A549 cell growth induced by zymosan-activated human serum complement. As to the method: as §1, §2
Experiment 9 was designed to determine the effect of ATA, AQA, AHA and ATAC on A549 cell growth. The protocol was identical to that used in Experiment 5(b) except A549 cells were used.

Experiment [4] relates to DOHH2 human B-cell carcinoma cells. The experiment is described as follows: Lactic dehydrogenase release from DOHH2 cells. The class given is cell-based. As to the method: as §3
Experiment 16 was designed to determine if apoptotic cell death of DOHH2 human B-cell carcinoma cells was induced by ATA, AQA, AHA, and ATAC as determined by the release of lactic dehydrogenase into the cell medium. The protocol was identical to that used in Experiment 9(d) except that DOHH2 human B-cell carcinoma cells were used.

In experiment [5] the test system is human colorectal adenocarcinoma cell line LS180. Briefly: LS180 cell growth in zymosan-activated human serum (MTT cell viability). The class given is cell-based. As to conditions: LS180 cells, EMEM, 15% human serum, n=4, read-out: IC50, inhibition of LS180 cell growth induced by zymosan-activated human serum complement. Here is the method:
as §1
Experiment 19 was designed to determine the effect of ATA, AQA, AHA and ATAC on growth of the human colorectal adenocarcinoma LS180 cell line. The protocol was identical to that used in Experiment 17(b) except that colorectal adenocarcinoma cells were utilized and the growth medium was EMEM.

Experiment [6] concerns colorectal adenocarcinoma LS180 cells. The experiment is described as follows: Lactic dehydrogenase release from LS180 cells. The class given is cell-based, human. As to conditions: n=4, read-out: IC50, lactate dehydrogenase release from LS180 cells. As to the method:
as §3
Experiment 20 was designed to determine if apoptotic death of colorectal adenocarcinoma LS180 cells was induced by ATA, AQA, AHA, and ATAC as determined by the release of lactic dehydrogenase into the cell medium. The protocol was identical to that used in Experiment 18(b) except that colorectal adenocarcinoma cells were used.

Experiment [7] relates to human carcinoma SW 480 cells. Briefly: Lactic dehydrogenase release from SW 480 cells. As to conditions: n=4, read-out: IC50, lactate dehydrogenase release from SW 480 cells. The class given is cell-based. Here is the method:
as §3
Experiment 23 was designed to determine the effect of ATA, AQA, 15 AHA and ATAC on growth of the human colorectal cancer cell line SW 480. The protocol was identical to that used in Experiment 15(b) except that human colorectal cancer SW480 cells were utilized. Experiment 24 was designed to determine if apoptotic death of human carcinoma SW 480 cells was induced by ATA, AQA, AHA, and ATAC as determined by the release of lactic dehydrogenase into the cell medium. The protocol was identical to that used in Experiment 15(d) except that human carcinoma SW480 cells were used and the growth medium was DMEM.

Setting [8] is: n=4, read-out: IC50, lactate dehydrogenase release from DOHH2 cells.

As to `O=C(O)C1=CC(=C(c2ccc(O)c(C(=O)O)c2)c2ccc(O)c(C(=O)O)c2)C=CC1=O` [ATA, aurin tricarboxylic acid], the IC50 in experiment [1] (U-251, U251 cells) turned out to be 3.5 µM; in experiment [2] it was 6.5 µM; in the experiment on BxPC-3 cells (Homo sapiens), 7.9 µM; in experiment [3], 7.2 µM; in experiment [4] (Homo sapiens, DOHH-2, n=4, read-out: IC50, lactate dehydrogenase release from DOHH2 cells), 4.9 µM; in experiment [5], 4.8 µM. Further, the IC50 in experiment [6] (Homo sapiens) amounted to 4.9 µM; in experiment [7] (Homo sapiens, SW480, DMEM), 4.7 µM.

Consider aurin hexacarboxylic acid [AHA], for which the IC50 stood at 3.8 µM in experiment [1] (U251 cells); 6.8 µM in experiment [2]; 8.1 µM in the experiment on BxPC-3 cells; 7.5 µM in experiment [3]; 5.1 µM in experiment [4] (setting [8]); 5.1 µM in experiment [5]. The IC50 turned out to be 5 µM in experiment [6] and 4.9 µM in experiment [7] (DMEM).

With aurin quadracarboxylic acid [AQA], the IC50 in experiment [1] (U251 cells) stood at 3.7 µM; in experiment [2], 6.7 µM; in the experiment with BxPC-3 cells, 8 µM; in experiment [3], 7.4 µM; in experiment [4] (setting [8]), 5 µM; in experiment [5] it was 5.2 µM. For the same compound, the IC50 came out at 5.1 µM in experiment [6] and 4.6 µM in experiment [7] (DMEM).

The values are drawn from patent US10653651B2, “Kit for treating cancer with low molecular weight components of aurin tricarboxylic acid complex” (Aurin Biotech Inc., priority 2014, dated 2020).
